# In patent US20260085315A1, “POLYNUCLEOTIDE COMPOSITIONS AND METHODS FOR TREATMENT OF CANCER” (APTAH BIO, INC., priority 2023, published 2026):
# d = 2'-deoxy (DNA); m = 2'-O-methyl
# Tests used:
# MCF-7 cell line = experiment: MTT cytotoxicity assay on human cancer cell panel (Example 2); format: cell-based; conditions: 24, 48, 72, 96 hours; 0.03-30 μM; 0.1% FBS
# Method: (§1) Cell lines were maintained in growth medium with 10% of Fetal Bovine Serum (FBS) until the time of the experiments. Cells were sub-cultured by trypsinization and splitting the cell suspension into fresh flasks and supplementing with fresh culture medium. To perform the assay, the cells were trypsinized, neutralized with complete medium (10% FBS), centrifuged, counted with assistance of a hemocytometer, and plated with the respective media with 10% FBS. Cell lines were plated at a density of 1×10^4 cells per well, other than the SH-SY5Y cell line which was plated at a density of 2.5×10^4. The preparation of the different experimental groups was done with 0.1% FBS (U87MG, MCF-7, SH-SY5Y and 786-O) and 1% FBS (PC-3). The untreated cells were used as negative control (medium only). After 24, 48, 72 and 96 hours of incubation, the effect of ASMO1 and controls on cytotoxicity of cells was determined by MTT assay.
# (§2) Briefly, plates were taken out and 20 μl of 5 mg/ml of MTT 3-(4,5-dimethythiazol-2-yl)-2,5-diphenyl tetrazolium bromide solution was added to all the wells. Cells were incubated for 3 h at 37° C. After this period, supernatant was aspirated and 100 μl of DMSO was added to each well to dissolve formazan crystals. The absorbance of each well was then read at 540 nm using Synergy HT microplate reader.
# (§3) Cells were plated and treated with 7 different concentrations (0.03, 0.1, 0.3, 1, 3, 10 and 30 μM) of APT20TTMG with medium (0.1% FBS). MTT assay was performed in 4 distinct times and graphs are represented as absorbance (540 nm). (A) 24 hours of incubation. (B) 48 hours of incubation. (C) 72 hours of incubation. (D) 96 hours of incubation.
# U-87MG cell line = experiment: as above; format: cell-based; conditions: 0.03-30 μM, 0.1% FBS
# Method: as §1, §2, §3
# SH-SY5Y cell line [1] = experiment: Distribution of cell cycle phases; format: cell-based, Human; conditions: any concentration evaluated
# SH-SY5Y cell line [2] = experiment: Apoptosis/necrosis phase distribution; format: cell-based, Human; conditions: 0.25 μM; 24 hours
# [3] = system: neuroblastoma cell line (SK-N-SH); experiment: Cell viability over time; format: cell-based; conditions: 0.5 μM; 24, 48, 96, 144 hours; indicating a cytostatic effect
# Method: FIG. 26 illustrates cell viability results obtained after 24, 48, 96 and 144 hours of incubation with ASMO1 (0.5 μM) in neuroblastoma cell line (SK-N-SH).
# TAU protein = experiment: Tau quantification by Western blot in SK-N-SH; format: cell-based; conditions: 0.5 μM
# Method: FIG. 27A-27B illustrates MAPT expression and tau quantification obtained after 24, 48, 96 and 144 hours of incubation with ASMO1 (0.5 μM) in neuroblastoma cell line.
# Cells were rinsed once with ice-cold PBS, collected, and pelleted by centrifugation at 2500 g for 5 minutes at 4° C. Each sample was re-suspended and lysed in 50 μl ice-cold radioimmunoprecipitation assay (RIPA) buffer (Thermo Fisher Scientific, USA) containing EDTA-free Halt protease and phosphatase inhibitor cocktail mixture (Thermo Fisher Scientific, USA) for 20 min at 4° C. To increase protein yields, each sample was homogenized using a 29 G×13 mm needle and syringe. Cell lysates were clarified by centrifugation at 17,000 g for 15 minutes at 4° C. Supernatants were collected and total protein concentration was determined using the BCA protein assay kit (Thermo Fisher Scientific, USA) according to the manufacturer's instructions. 15 μg of total protein in cell lysates were denatured in NuPAGE LDS sample buffer (Thermo Fisher Scientific, USA) with NuPAGE sample reducing agent (DTT; Thermo Fisher Scientific, USA) and boiled at 90° C. for 5 minutes. […] Densitometry using Image J (v1.48k; NIH) was performed and all quantification was standardized against vinculin levels.
# [4] = system: U87MG (Human Glioblastoma); experiment: MTT viability assay 48/96/144 h (Example 5); format: cell-based; conditions: 0.003-30 μM tested
# Method: In vitro effects of APT20TTMG on viability and proliferation of human cancer cell line U87MG (Human Glioblastoma) were also evaluated by MTT and BrdU assays, respectively. Cells were treated with APT20TTMG and Reference Items in technical triplicates (Experiment was done in 3 different sets) at various concentrations for 48 h, 96 h, and 144 h. APT20TTMG and Reference Items were read after every 48 h.
# As shown in FIGS. 32-33, A MTT assay (FIG. 32) was also performed with another five different concentrations of APT20TTMG (0.003, 0.03, 0.3, 3, and 30 μM) and at 48, 96, and 144 hours of incubation. […] Finally, to confirm whether APT20TTMG is a cytotoxic or cytostatic molecule considering its ability to reduce cellular viability in certain concentrations, a cell proliferation assay (FIG. 33) with the U87-MG cell line was also performed in the same conditions as the MTT assay. […] Cells were plated and treated with 5 different concentrations (0.003, 0.03, 0.3, 3, and 30 μM). BrdU assay was performed after 48, 96, or 144 hours of incubation. Data are plotted as a percentage (%) of cell viability compared to the negative control group (vehicle). Results are expressed as Mean±SEM of three independent experiments performed in three technical replicates. […]
substance,measurement,setting,value
"APT20TTMG: engineered polynucleotide ASMO1, 24 nt, SEQ ID NO: 3 gtccactaacctttcaggccagcg; targeting moieties 5′-GTCCA-3′ and 5′-CG-3′, U1 snRNP recruiting moiety (GTCCACTAACCTTTCAGGCCAGCG; sugars from the 5' end m5 d14 m5, all phosphorothioate, methylation of C and T or U not given here)",cytotoxic or cytostatic effect (MTT),MCF-7 cell line,does not exert a cytotoxic or cytostatic effect
same,"cell viability (MTT, absorbance 540 nm)",U-87MG cell line; 72 and 96 hours,like those of the vehicle group
same,"cell viability (MTT, absorbance 540 nm)","U-87MG cell line; 24 hours, vs negative control and vehicle",trend of reduction in cell viability
same,"cell viability (MTT, absorbance 540 nm)",U-87MG cell line; 48 hours,reduction in absorbance values
same,cell cycle phases,SH-SY5Y cell line [1],no change in cell cycle phases
same,necrotic cells,SH-SY5Y cell line [2],increase in necrotic cells
same,number of viable cells,[3],remains practically the same
same,reduction of tau protein quantification,TAU protein; first of 'the two highest concentrations' as printed (parallel to 96 h),40±13.3%
same,reduction of tau protein quantification,TAU protein; second of 'the two highest concentrations' as printed (parallel to 144 h),46±14.3%
same,concentrations observed to reduce cell viability (MTT),[4]; 96 and 144 hours,≥ 0.3 µM
same,concentration observed to reduce cell viability (MTT),[4]; 48 hours,30 µM
